The source of these data is ChEMBL document CHEMBL1133947, “Synthesis and biological properties of new 1beta-methylcarbapenems containing heteroaromatic thioether moiety” (Bioorg Med Chem Lett, 2001).

≈ marks a conversion by molar mass, not a printed value.

The subject of one series is Enterobacter cloacae. The experiment in a line: In vitro antibacterial activity against Enterobacter cloacae 1321E. It counts as functional.
The subject of series [1] is Escherichia coli. The experiment in a line: In vitro antibacterial activity against Escherichia coli 078. Type of series: functional.
Series [2] deals with Escherichia coli. In words: In vitro antibacterial activity against Escherichia coli 1507E. Type of series: functional.
The next series deals with Klebsiella aerogenes. In words: In vitro antibacterial activity against Klebsiella aerogenes 1522E. It counts as functional.
The subject of series [3] is Pseudomonas aeruginosa. In words: In vitro antibacterial activity against Pseudomonas aeruginosa 1771M. It counts as functional.
The subject of a further series is Salmonella typhimurium. In words: In vitro antibacterial activity against Salmonella Typhimurium. It counts as functional, Salmonella enterica subsp. enterica serovar Typhimurium. The note with it: Salmonella enterica.
Series [4] has as its system Staphylococcus aureus. In words: In vitro antibacterial activity against Staphylococcus aureus 285. It counts as functional.
Series [5] deals with Staphylococcus aureus. In words: In vitro antibacterial activity against Staphylococcus aureus 503. It counts as functional.
Series [6] deals with Staphylococcus aureus. The experiment in a line: In vitro antibacterial activity against Staphylococcus aureus SG 511. Type of series: functional.
The test system of another series is Streptococcus pyogenes. The experiment in a line: In vitro antibacterial activity against Streptococcus pyogenes 308A. Type of series: functional.
Series [7] relates to Pseudomonas aeruginosa. In words: In vitro antibacterial activity against Pseudomonas aeruginosa 9027. It counts as functional.
For the next series, the species on record is Sus scrofa. In words: DHP-I stability of compound relative to t1/2 of hydrolysis to meropenem. It counts as functional. Also noted: scale not given: the % may be the effect or the level left.
Series [8] in a line: Half life of compound after iv administration of 20 mg/kg dose in rat. On the set-up: dose 20 mg/kg, route intravenous. Type of series: ADME, organism-based. The note with it: in vivo.
Series [9] can be described thus: Clearance of compound after iv administration of 20 mg/kg dose in rat. Type of series: ADME, organism-based. Also noted: dose 20 mg/kg, route intravenous. The note with it: in vivo.
A short description of series [10]: Area under curve of compound after iv administration of 20 mg/kg dose in rat. Type of series: ADME, organism-based. On the set-up: dose 20 mg/kg, route intravenous. Conditions: in vivo.

Take `C[C@@H](O)[C@H]1C(=O)N2C(C(=O)O)=C(S[C@@H]3CN[C@H](CSc4ncccc4O)C3)[C@H](C)[C@H]12`: the MIC (in general, the least concentration at which growth counts as inhibited) was 0.098 µg/mL (≈ 0.217 µM) in the series with Enterobacter cloacae; 0.195 µg/mL (≈ 0.432 µM) in the series with Escherichia coli [1]; 0.195 µg/mL (≈ 0.432 µM) in the series with Escherichia coli [2]; 0.195 µg/mL (≈ 0.432 µM) in the series on Klebsiella aerogenes; 6.25 µg/mL (≈ 13.8 µM) against Pseudomonas aeruginosa [3]; 0.195 µg/mL (≈ 0.432 µM) against Salmonella typhimurium. The MIC is 0.049 µg/mL (≈ 0.109 µM) in the series with Staphylococcus aureus [4]; 0.195 µg/mL (≈ 0.432 µM) in the series with Staphylococcus aureus [5]; 0.025 µg/mL (≈ 0.0554 µM) in the series on Staphylococcus aureus [6]; under 0.002 µg/mL in the series on Streptococcus pyogenes; 25 µg/mL (≈ 55.4 µM) in the series with Pseudomonas aeruginosa [7].
As for `C[C@@H](O)[C@H]1C(=O)N2C(C(=O)O)=C(S[C@@H]3CN[C@H](CSc4ncccn4)C3)[C@H](C)[C@H]12`, the MIC is 0.049 µg/mL (≈ 0.112 µM) against Enterobacter cloacae; 0.049 µg/mL (≈ 0.112 µM) against Escherichia coli [1]; 0.049 µg/mL (≈ 0.112 µM) against Escherichia coli [2]; 0.098 µg/mL (≈ 0.224 µM) against Klebsiella aerogenes; 0.391 µg/mL (≈ 0.896 µM) in the series with Pseudomonas aeruginosa [3]; 0.098 µg/mL (≈ 0.224 µM) in the series on Salmonella typhimurium. Further, the MIC was 0.049 µg/mL (≈ 0.112 µM) against Staphylococcus aureus [4]; 0.025 µg/mL (≈ 0.0573 µM) with Staphylococcus aureus [5]; 0.025 µg/mL (≈ 0.0573 µM) in the series on Staphylococcus aureus [6]; under 0.002 µg/mL in the series with Streptococcus pyogenes; 3.12 µg/mL (≈ 7.16 µM) with Pseudomonas aeruginosa [7]. In addition, the Stability in the series listed under Sus scrofa is 89%.
`Cc1nnc(SC[C@@H]2C[C@H](SC3=C(C(=O)O)N4C(=O)[C@H]([C@@H](C)O)[C@H]4[C@H]3C)CN2)s1`: the MIC against Enterobacter cloacae came out at 0.013 µg/mL (≈ 0.0285 µM); in the series with Escherichia coli [1], 0.007 µg/mL (≈ 0.0153 µM); against Escherichia coli [2] it was 0.007 µg/mL (≈ 0.0153 µM); against Klebsiella aerogenes, 0.025 µg/mL (≈ 0.0548 µM); in the series on Pseudomonas aeruginosa [3] it was 0.195 µg/mL (≈ 0.427 µM); against Salmonella typhimurium it was 0.025 µg/mL (≈ 0.0548 µM). For the same molecule, the minimum inhibitory concentration (MIC) in the series on Staphylococcus aureus [4] worked out at 0.025 µg/mL (≈ 0.0548 µM); against Staphylococcus aureus [5], 0.007 µg/mL (≈ 0.0153 µM); in the series with Staphylococcus aureus [6], 0.025 µg/mL (≈ 0.0548 µM); against Streptococcus pyogenes, 0.004 µg/mL (≈ 0.00876 µM); in the series on Pseudomonas aeruginosa [7], 3.12 µg/mL (≈ 6.84 µM). Moreover, the Stability in the series listed under Sus scrofa worked out at 108%.
Consider `C[C@@H](O)[C@H]1C(=O)N2C(C(=O)O)=C(S[C@@H]3CN[C@H](CSc4cnns4)C3)[C@H](C)[C@H]12`, for which, in [8], the half-life (as a rule, the time needed for the level to fall by half in the phase considered) was determined as 43.1 min. Also, in series [9], the clearance – broadly, a measure of how efficiently the substance is removed, as volume per time – was 10.2 mL/min/kg. In addition, the AUC – broadly, the area under the concentration-time curve, a measure of exposure – in series [10] is 36900 ng·h/mL. For the same molecule, the MIC amounted to 0.013 µg/mL (≈ 0.0294 µM) against Enterobacter cloacae; 0.013 µg/mL (≈ 0.0294 µM) with Escherichia coli [1]; 0.013 µg/mL (≈ 0.0294 µM) against Escherichia coli [2]; 0.025 µg/mL (≈ 0.0565 µM) against Klebsiella aerogenes; 0.195 µg/mL (≈ 0.441 µM) against Pseudomonas aeruginosa [3]; 0.025 µg/mL (≈ 0.0565 µM) against Salmonella typhimurium. For the same molecule, the MIC in the series on Staphylococcus aureus [4] worked out at 0.049 µg/mL (≈ 0.111 µM); with Staphylococcus aureus [5], 0.013 µg/mL (≈ 0.0294 µM); against Staphylococcus aureus [6] it was 0.025 µg/mL (≈ 0.0565 µM); in the series on Streptococcus pyogenes, 0.007 µg/mL (≈ 0.0158 µM); in the series on Pseudomonas aeruginosa [7] it was 1.56 µg/mL (≈ 3.53 µM). In addition, the Stability in the series filed under Sus scrofa was 167%.
Regarding `C[C@@H](O)[C@H]1C(=O)N2C(C(=O)O)=C(SCCNC=N)C[C@H]12.O` [IMIPENEM], the half-life in series [8] was determined as 3.46 min.
On to `C[C@@H](O)[C@H]1C(=O)N2C(C(=O)O)=C(S[C@@H]3CN[C@H](CSc4nccc(C(F)(F)F)n4)C3)[C@H](C)[C@H]12`, for which the minimum inhibitory concentration (MIC) with Enterobacter cloacae came out at 0.025 µg/mL (≈ 0.0495 µM); against Escherichia coli [1], 0.025 µg/mL (≈ 0.0495 µM); in the series on Escherichia coli [2] it was 0.025 µg/mL (≈ 0.0495 µM); in the series on Klebsiella aerogenes it was 0.049 µg/mL (≈ 0.0971 µM); with Pseudomonas aeruginosa [3], 0.781 µg/mL (≈ 1.55 µM); in the series on Salmonella typhimurium it was 0.049 µg/mL (≈ 0.0971 µM). For the same molecule, the MIC with Staphylococcus aureus [4] worked out at 0.098 µg/mL (≈ 0.194 µM); with Staphylococcus aureus [5], 0.025 µg/mL (≈ 0.0495 µM); in the series with Staphylococcus aureus [6] it was 0.098 µg/mL (≈ 0.194 µM); with Streptococcus pyogenes, 0.007 µg/mL (≈ 0.0139 µM); against Pseudomonas aeruginosa [7], 50 µg/mL (≈ 99.1 µM).
`Cc1ccnc(SC[C@@H]2C[C@H](SC3=C(C(=O)O)N4C(=O)[C@H]([C@@H](C)O)[C@H]4[C@H]3C)CN2)n1`: the MIC is 0.098 µg/mL (≈ 0.217 µM) with Enterobacter cloacae; 0.049 µg/mL (≈ 0.109 µM) against Escherichia coli [1]; 0.098 µg/mL (≈ 0.217 µM) with Escherichia coli [2]; 0.098 µg/mL (≈ 0.217 µM) against Klebsiella aerogenes; 6.25 µg/mL (≈ 13.9 µM) in the series with Pseudomonas aeruginosa [3]; 0.098 µg/mL (≈ 0.217 µM) against Salmonella typhimurium. Moreover, the minimum inhibitory concentration (MIC) in the series on Staphylococcus aureus [4] was 0.098 µg/mL (≈ 0.217 µM); against Staphylococcus aureus [5], 0.025 µg/mL (≈ 0.0555 µM); in the series with Staphylococcus aureus [6] it was 0.049 µg/mL (≈ 0.109 µM); with Streptococcus pyogenes it was 0.007 µg/mL (≈ 0.0155 µM); against Pseudomonas aeruginosa [7], 25 µg/mL (≈ 55.5 µM). In the series listed under Sus scrofa, this molecule registered a Stability of 122%.
In [8], `C[C@@H](O)[C@H]1C(=O)N2C(C(=O)O)=C(S[C@@H]3CN[C@H](CSc4nnnn4C)C3)[C@H](C)[C@H]12` yielded a half-life of 11 min. Besides, the MIC in the series on Enterobacter cloacae turned out to be 0.025 µg/mL (≈ 0.0567 µM); in the series with Escherichia coli [1], 0.025 µg/mL (≈ 0.0567 µM); with Escherichia coli [2] it was 0.025 µg/mL (≈ 0.0567 µM); against Klebsiella aerogenes it was 0.025 µg/mL (≈ 0.0567 µM); in the series on Pseudomonas aeruginosa [3], 0.195 µg/mL (≈ 0.443 µM); with Salmonella typhimurium it was 0.025 µg/mL (≈ 0.0567 µM). Further, the MIC worked out at 0.049 µg/mL (≈ 0.111 µM) with Staphylococcus aureus [4]; 0.025 µg/mL (≈ 0.0567 µM) in the series with Staphylococcus aureus [5]; 0.025 µg/mL (≈ 0.0567 µM) in the series with Staphylococcus aureus [6]; 0.004 µg/mL (≈ 0.00908 µM) in the series on Streptococcus pyogenes; 0.781 µg/mL (≈ 1.77 µM) with Pseudomonas aeruginosa [7]. In the series filed under Sus scrofa, this molecule showed a Stability of 88%.
For the molecule `C[C@@H](O)[C@H]1C(=O)N2C(C(=O)O)=C(S[C@@H]3CN[C@H](CSc4nncn4C)C3)[C@H](C)[C@H]12`, the MIC amounted to 0.049 µg/mL (≈ 0.111 µM) with Enterobacter cloacae; 0.025 µg/mL (≈ 0.0569 µM) in the series on Escherichia coli [1]; 0.049 µg/mL (≈ 0.111 µM) against Escherichia coli [2]; 0.098 µg/mL (≈ 0.223 µM) with Klebsiella aerogenes; 0.195 µg/mL (≈ 0.444 µM) in the series on Pseudomonas aeruginosa [3]; 0.098 µg/mL (≈ 0.223 µM) against Salmonella typhimurium. The MIC against Staphylococcus aureus [4] was 0.098 µg/mL (≈ 0.223 µM); with Staphylococcus aureus [5] it was 0.025 µg/mL (≈ 0.0569 µM); in the series on Staphylococcus aureus [6], 0.049 µg/mL (≈ 0.111 µM); against Streptococcus pyogenes, 0.013 µg/mL (≈ 0.0296 µM); in the series on Pseudomonas aeruginosa [7] it was 1.56 µg/mL (≈ 3.56 µM). In the series listed under Sus scrofa, this molecule yielded a Stability of 93%.
As for `C[C@@H](O)[C@H]1C(=O)N2C(C(=O)O)=C(S[C@@H]3CN[C@H](C(=O)N(C)C)C3)[C@H](C)[C@H]12` [MEROPENEM], the MIC was 0.025 µg/mL (≈ 0.0652 µM) against Enterobacter cloacae; 0.025 µg/mL (≈ 0.0652 µM) against Escherichia coli [1]; 0.025 µg/mL (≈ 0.0652 µM) against Escherichia coli [2]; 0.049 µg/mL (≈ 0.128 µM) in the series on Klebsiella aerogenes; 0.049 µg/mL (≈ 0.128 µM) against Pseudomonas aeruginosa [3]; 0.049 µg/mL (≈ 0.128 µM) against Salmonella typhimurium. Moreover, the MIC with Staphylococcus aureus [4] was determined as 0.195 µg/mL (≈ 0.509 µM); with Staphylococcus aureus [5] it was 0.098 µg/mL (≈ 0.256 µM); with Staphylococcus aureus [6], 0.195 µg/mL (≈ 0.509 µM); in the series on Streptococcus pyogenes, 0.013 µg/mL (≈ 0.0339 µM); in the series on Pseudomonas aeruginosa [7], 0.195 µg/mL (≈ 0.509 µM). For the same molecule, the Stability in the series listed under Sus scrofa stood at 100%.
On to `CNC(=O)c1cccnc1SC[C@@H]1C[C@H](SC2=C(C(=O)O)N3C(=O)[C@H]([C@@H](C)O)[C@H]3[C@H]2C)CN1`, for which the MIC came to 0.049 µg/mL (≈ 0.0995 µM) in the series with Enterobacter cloacae; 0.049 µg/mL (≈ 0.0995 µM) with Escherichia coli [1]; 0.098 µg/mL (≈ 0.199 µM) against Escherichia coli [2]; 0.098 µg/mL (≈ 0.199 µM) against Klebsiella aerogenes; 1.56 µg/mL (≈ 3.17 µM) against Pseudomonas aeruginosa [3]; 0.098 µg/mL (≈ 0.199 µM) with Salmonella typhimurium. Further, the MIC with Staphylococcus aureus [4] was under 0.049 µg/mL; against Staphylococcus aureus [5], 0.025 µg/mL (≈ 0.0507 µM); against Staphylococcus aureus [6], under 0.049 µg/mL; against Streptococcus pyogenes it was under 0.002 µg/mL; against Pseudomonas aeruginosa [7] it was 12.5 µg/mL (≈ 25.4 µM).
